Results published in ChEMBL document CHEMBL5584263, “Novel inhibitor N-cyclopropyl-4-((4-((4-(trifluoromethyl)phenyl)sulfonyl)piperazin-1-yl)methyl)benzamide attenuates RANKL-mediated osteoclast differentiation in vitro” (Bioorg Med Chem Lett, 2024).
Each block holds one compound with its values, some of them ahead of it. Activity calls are given as the source filed them. No cut-off for these calls is given here.

Columns and labels:
BMMC [1] = experiment: Inhibition of osteoclastogenesis in mouse BMMC at 2 uM by TRAP staining based assay; assay type: functional
[2] = Partition coefficient, logP of compound; assay type: physicochemical; conditions: octanol/water
BMMC [3] = experiment: Inhibition of osteoclastogenesis in mouse BMMC at 0.5 uM by TRAP staining based assay; assay type: functional
BMMC [4] = experiment: Inhibition of osteoclastogenesis in mouse BMMC at 1 uM by TRAP staining based assay; assay type: functional
BMMC [5] = experiment: Inhibition of osteoclastogenesis in mouse BMMC by TRAP staining based assay; assay type: functional, cell-based
BMMC [6] = experiment: Inhibition of osteoclast differentiation in mouse BMMCs assessed as reduction in Cathepsin K protein expression at 1.25 uM incubated for 3 days by immunoblotting analysis; assay type: functional, cell-based; conditions: time 3.0 day
BMMC [7] = experiment: Inhibition of osteoclast differentiation in mouse BMMCs assessed as reduction in ACP5 mRNA expression at 1.25 uM incubated for 3 days by qRT-PCR analysis; assay type: functional, cell-based; conditions: time 3.0 day
BMMC [8] = experiment: Inhibition of osteoclast differentiation in mouse BMMCs assessed as reduction in NFATc1 protein expression at 1.25 uM incubated for 3 days by immunoblotting analysis; assay type: functional, cell-based; conditions: time 3.0 day
BMMC [9] = experiment: Inhibition of osteoclast differentiation in mouse BMMCs assessed as reduction in Nfatc1 mRNA expression at 1.25 uM incubated for 3 days by qRT-PCR analysis; assay type: functional, cell-based; conditions: time 3.0 day
Mus musculus = experiment: Inhibition of osteoclast differentiation in ovariectomized osteoporosis mouse model at 10 mg/kg, ip administered for 4 weeks; assay type: functional, organism-based
BMMC [10] = experiment: Inhibition of osteoclast differentiation in mouse BMMCs assessed as reduction in Cathepsin K mRNA expression at 1.25 uM incubated for 3 days by qRT-PCR analysis; assay type: functional, cell-based; conditions: time 3.0 day
BMMC [11] = experiment: Inhibition RANKL-induced bone resorption in mouse BMMC at 0.625 to 2.5 uM incubated for 4 days by immunofluorescence assay; assay type: functional, cell-based; conditions: dose 0.625-2.5 µM, time 4.0 day
BMMC [12] = experiment: Inhibition of RANKL mediated […] differentiation in mouse BMMC at 0.25 to 2 uM incubated for 4 days by TRAP staining based assay; assay type: functional, cell-based; conditions: dose 0.25-2 µM, time 4.0 day
[13] = Effect on mouse BMMCs viability at below 10 uM incubated for 48 hrs by MTT assay; assay type: toxicity, cell-based; conditions: bmmc
BMMC [14] = experiment: Inhibition of osteoclast differentiation in mouse BMMCs assessed as reduction in c-fos protein expression at 1.25 uM incubated for 3 days by immunoblotting analysis; assay type: functional, cell-based; conditions: time 3.0 day
BMMC [15] = experiment: Inhibition RANKL-induced F-actin ring formation in mouse BMMC at 0.625 to 2.5 uM incubated for 4 days by immunofluorescence assay; assay type: functional, cell-based; conditions: dose 0.625-2.5 µM, time 4.0 day
BMMC [16] = experiment: Inhibition of osteoclast differentiation in mouse BMMCs assessed as reduction in […] mRNA expression at 1.25 uM incubated for 3 days by qRT-PCR analysis; assay type: functional, cell-based; conditions: time 3.0 day
BMMC [17] = experiment: Inhibition of osteoclast differentiation in mouse BMMCs assessed as reduction in Dc-stamp mRNA expression at 1.25 uM incubated for 3 days by qRT-PCR analysis; assay type: functional, cell-based; conditions: time 3.0 day
BMMC [18] = experiment: Inhibition of RANKL mediated […] differentiation in mouse BMMC incubated for 4 days by TRAP staining based assay; assay type: functional, cell-based; conditions: dose 0.25-2 µM, time 4.0 day
BMMC [19] = experiment: Inhibition of osteoclastogenesis in mouse BMMC assessed as reduction in fusion of mononuclear osteoclast cells to form large multinucleated osteoclast cells at 0.25 to 2 uM; assay type: functional, cell-based; conditions: dose 0.25-2 µM
Calvarial osteoblast = experiment: Effect on cell viability in osteoblast cells (unknown origin) upto 4 uM incubated for 48 hrs by MTT assay; assay type: toxicity, cell-based
BMMC [20] = experiment: Inhibition of osteoclast differentiation in mouse BMMCs assessed as reduction in Mmp9 mRNA expression at 1.25 uM incubated for 3 days by qRT-PCR analysis; assay type: functional, cell-based; conditions: time 3.0 day

logP [2]: 2.7
SMILES: COc1cccc(S(=O)(=O)N2CCN(Cc3ccc(C(=O)NC4CC4)cc3)CC2)c1
inhibition at 2 µM (BMMC [1]): -5.21%
inhibition at 0.5 µM (BMMC [3]): -22.8%
inhibition at 1 µM (BMMC [4]): -20.9%

logP [2]: 5.7
SMILES: CCCCCCCCS(=O)(=O)N1CCN(Cc2ccc(C(=O)NC3CC3)cc2)CC1
inhibition at 2 µM (BMMC [1]): 84%
IC50 (BMMC [5]): 1.14 µM
inhibition at 0.5 µM (BMMC [3]): 23.9%
inhibition at 1 µM (BMMC [4]): 33.2%

logP [2]: 2.6
SMILES: COc1ccc(S(=O)(=O)N2CCN(Cc3ccc(C(=O)NC4CC4)cc3)CC2)cc1
inhibition at 2 µM (BMMC [1]): 10.6%
IC50 (BMMC [5]): 221 µM
inhibition at 0.5 µM (BMMC [3]): -9.9%
inhibition at 1 µM (BMMC [4]): -13.8%

logP [2]: 4.1
SMILES: CC(C)(C)c1ccc(S(=O)(=O)N2CCN(Cc3ccc(C(=O)NC4CC4)cc3)CC2)cc1
inhibition at 2 µM (BMMC [1]): 100%
IC50 (BMMC [5]): 0.55 µM
inhibition at 0.5 µM (BMMC [3]): 23.6%
inhibition at 1 µM (BMMC [4]): 74.1%

logP [2]: 2.3
SMILES: CC(=O)c1ccc(S(=O)(=O)N2CCN(Cc3ccc(C(=O)NC4CC4)cc3)CC2)cc1
inhibition at 2 µM (BMMC [1]): 14.7%
IC50 (BMMC [5]): 7.24 µM
inhibition at 0.5 µM (BMMC [3]): 17.6%
inhibition at 1 µM (BMMC [4]): 16.9%

logP [2]: 4.1
SMILES: O=C(NC1CC1)c1ccc(CN2CCN(S(=O)(=O)c3ccc(-c4ccccc4)cc3)CC2)cc1
inhibition at 2 µM (BMMC [1]): 100%
IC50 (BMMC [5]): 0.75 µM
inhibition at 0.5 µM (BMMC [3]): 9.56%
inhibition at 1 µM (BMMC [4]): 64.6%

logP [2]: 3.3
SMILES: O=C(NC1CC1)c1ccc(CN2CCN(S(=O)(=O)c3cccc(Cl)c3)CC2)cc1
inhibition at 2 µM (BMMC [1]): 71.7%
IC50 (BMMC [5]): 3.03 µM
inhibition at 0.5 µM (BMMC [3]): -49.2%
inhibition at 1 µM (BMMC [4]): 25.2%

logP [2]: 2.6
SMILES: O=C(NC1CC1)c1ccc(CN2CCN(S(=O)(=O)c3ccc([N+](=O)[O-])cc3)CC2)cc1
inhibition at 2 µM (BMMC [1]): 46.7%
IC50 (BMMC [5]): 1.69 µM
inhibition at 0.5 µM (BMMC [3]): 48.9%
inhibition at 1 µM (BMMC [4]): 25.5%

logP [2]: 3.5
SMILES: O=C(NC1CC1)c1ccc(CN2CCN(S(=O)(=O)c3ccc(C(F)(F)F)cc3)CC2)cc1
inhibition (BMMC [6]): Active
inhibition (BMMC [7]): Active
inhibition (BMMC [8]): Active
inhibition (BMMC [9]): Active
inhibition (Mus musculus): inactive
inhibition at 2 µM (BMMC [1]): 96.8%
inhibition (BMMC [10]): Active
inhibition (BMMC [11]): Active
inhibition (BMMC [12]): Active
Activity [13]: Non-Toxic
IC50 (BMMC [5]): 0.64 µM
inhibition at 0.5 µM (BMMC [3]): 17.7%
inhibition (BMMC [14]): Active
inhibition at 1 µM (BMMC [4]): 72%
inhibition (BMMC [15]): Active
inhibition (BMMC [16]): Active
inhibition (BMMC [17]): Active
inhibition (BMMC [18]): Dose-Dependent Effect
inhibition (BMMC [19]): Active
Activity (Calvarial osteoblast): Non-Toxic
inhibition (BMMC [20]): Active
